Experimental findings from US11091478B2 (Fochon Pharmaceuticals, Ltd., priority 2017, dated 2021) are described below.

The subject of assay [1] is DOHH2 cells. Kind of assay: Cell proliferation assay (MTS), DOHH2 cells, 120 h. It is filed as cell-based. Conditions: Homo sapiens, DOHH-2, 120 h. Put shortly: (§1)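 Proliferation was scored by MTS (2 h, then SDS stop, A490 with 650 nm reference) and IC50 derived. Compound ran at nine final concentrations from 1.5 to 10000 nM. DOHH2 were incubated 120 h and RS4;11 72 h, both plated at 5000 cells/well in RPMI-1640 plus 10% FBS.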

Assay [2] relates to RS4;11 cells. The assay is described as follows: Cell proliferation assay (MTS), RS4;11 cells, 72 h. It is filed as cell-based. As to conditions: Homo sapiens, RS4-11, 72 h. The essentials:
as §1

By IC50 is commonly meant the point on the concentration scale where inhibition reaches its midpoint. Read a low IC50 as higher potency. Consider `CC1(C)CCC(CN2CCN(c3ccc(C(=O)NS(=O)(=O)c4cc5c(c([N+](=O)[O-])c4)N[C@@H](CO)CO5)c(Oc4cnc5[nH]ccc5c4)c3)CC2)=C(c2ccc(Cl)cc2)C1` [Example 2-220, (S)-2-((1H-pyrrolo[2,3-b]pyridin-5-yl)oxy)-4-(4-((4′-chloro-5,5-dimethyl-3,4,5,6-tetra-hydro-[1,1′-biphenyl]-2-yl)methyl)piperazin-1-yl)-N-((3-(hydroxymethyl)-5-nitro-3,4-dihydro-2H-benzo[b][1,4]oxazin-7-yl)sulfonyl)benzamide], for which the IC50 in assay [1] was 36 nM; in assay [2], 8 nM.

As to `CC1(C)CCC(CN2CCN(c3ccc(C(=O)NS(=O)(=O)c4cc5c(c([N+](=O)[O-])c4)N[C@@H](CC4CCNCC4)CO5)c(Oc4cnc5[nH]ccc5c4)c3)CC2)=C(c2ccc(Cl)cc2)C1` [Example 2-221, (S)-2-((1H-pyrrolo[2,3-b]pyridin-5-yl)oxy)-4-(4-((4′-chloro-5,5-dimethyl-3,4,5,6-tetra-hydro-[1,1′-biphenyl]-2-yl)methyl)piperazin-1-yl)-N-((5-nitro-3-(piperidin-4-ylmethyl)-3,4-dihydro-2H-benzo[b][1,4]oxazin-7-yl)sulfonyl)benzamide], the IC50 was found to be 474 nM in assay [1] and 30 nM in assay [2].

With `CC1(C)CCC(CN2CCN(c3ccc(C(=O)NS(=O)(=O)c4cc5c(c([N+](=O)[O-])c4)N[C@H](C4CCN(C(=O)OC(C)(C)C)CC4)CO5)c(Oc4cnc5[nH]ccc5c4)c3)CC2)=C(c2ccc(Cl)cc2)C1` [Example 2-222, tert-btuyl (R)-4-(7-(N-(2-((1H-pyrrolo[2,3-b]pyridin-5-yl)oxy)-4-(4-((4′-chloro-5,5-dimethyl-3,4,5,6-tetrahydro-[1,1′-biphenyl]-2-yl)methyl)piperazin-1-yl)benzoyl)sulfamoyl)-5-nitro-3,4-dihydro-2H-benzo[b][1,4]oxazin-3-yl) piperidine-1-carboxylate], the IC50 in assay [1] is 3 nM; in assay [2], 25 nM.

For `COC(=O)N1CCC([C@@H]2COc3cc(S(=O)(=O)NC(=O)c4ccc(N5CCN(CC6=C(c7ccc(Cl)cc7)CC(C)(C)CC6)CC5)cc4Oc4cnc5[nH]ccc5c4)cc([N+](=O)[O-])c3N2)CC1` [Example 2-223, methyl (R)-4-(7-(N-(2-((1H-pyrrolo[2,3-b]pyridin-5-yl)oxy)-4-(4-((4′-chloro-5,5-dimethyl-3,4,5,6-tetrahydro-[1,1′-biphenyl]-2-yl)methyl)piperazin-1-yl)benzoyl)sulfamoyl)-5-nitro-3,4-dihydro-2H-benzo[b][1,4]oxazin-3-yl) piperidine-1-carboxylate], the IC50 in assay [1] stood at 11 nM; in assay [2], 1 nM.

As to `CC(=O)N1CCC([C@@H]2COc3cc(S(=O)(=O)NC(=O)c4ccc(N5CCN(CC6=C(c7ccc(Cl)cc7)CC(C)(C)CC6)CC5)cc4Oc4cnc5[nH]ccc5c4)cc([N+](=O)[O-])c3N2)CC1` [Example 2-224, (R)-2-((1H-pyrrolo[2,3-b]pyridin-5-yl)oxy)-N-((3-(1-acetylpiperidin-4-yl)-5-nitro-3,4-dihydro-2H-benzo[b][1,4]oxazin-7-yl)sulfo-nyl)-4-(4-((4′-chloro-5,5-dimethyl-3,4,5,6-tetrahydro-[1,1′-biphenyl]-2-yl)methyl)piper-azin-1-yl)benzamide], the IC50 in assay [1] was 3 nM; in assay [2] it was 4 nM.

As to `CC1(C)CCC(CN2CCN(c3ccc(C(=O)NS(=O)(=O)c4cc5c(c([N+](=O)[O-])c4)N[C@H](C4CCN(S(C)(=O)=O)CC4)CO5)c(Oc4cnc5[nH]ccc5c4)c3)CC2)=C(c2ccc(Cl)cc2)C1` [Example 2-225, (R)-2-((1H-pyrrolo[2,3-b]pyridin-5-yl)oxy)-4-(4-((4′-chloro-5,5-dimethyl-3,4,5,6-tetra-hydro-[1,1′-biphenyl]-2-yl)methyl)piperazin-1-yl)-N-((3-(1-(methylsulfonyl)piperidin-4-yl)-5-nitro-3,4-dihydro-2H-benzo[b][1,4]oxazin-7-yl)sulfonyl)benzamide], the IC50 in assay [1] is 15 nM; in assay [2] it was 2 nM.

`CC1(C)CCC(CN2CCN(c3ccc(C(=O)NS(=O)(=O)c4cc5c(c([N+](=O)[O-])c4)N[C@H](C4CCNCC4)CO5)c(Oc4cnc5[nH]ccc5c4)c3)CC2)=C(c2ccc(Cl)cc2)C1` [Example 2-226, (R)-2-((1H-pyrrolo[2,3-b]pyridin-5-yl)oxy)-4-(4-((4′-chloro-5,5-dimethyl-3,4,5,6-tetra-hydro-[1,1′-biphenyl]-2-yl)methyl)piperazin-1-yl)-N-((5-nitro-3-(piperidin-4-yl)-3,4-dihydro-2H-benzo[b][1,4]oxazin-7-yl)sulfo-nyl)benzamide]: the IC50 in assay [1] turned out to be 48 nM; in assay [2], 10 nM.

Regarding `CN1CCC([C@@H]2COc3cc(S(=O)(=O)NC(=O)c4ccc(N5CCN(CC6=C(c7ccc(Cl)cc7)CC(C)(C)CC6)CC5)cc4Oc4cnc5[nH]ccc5c4)cc([N+](=O)[O-])c3N2)CC1` [Example 2-227, (R)-2-((1H-pyrrolo[2,3-b]pyridin-5-yl)oxy)-4-(4-((4′-chloro-5,5-dimethyl-3,4,5,6-tetra-hydro-[1,1′-biphenyl]-2-yl)methyl)piperazin-1-yl)-N-((3-(1-methylpiperidin-4-yl)-5-ni-tro-3,4-dihydro-2H-benzo[b][1,4]oxazin-7-yl)sulfonyl)benzamide], the IC50 in assay [1] came to 6 nM; in assay [2], 1 nM.

For `CC1(C)CCC(CN2CCN(c3ccc(C(=O)NS(=O)(=O)c4cc5c(c([N+](=O)[O-])c4)N[C@@H](C4CCN(C(=O)OC(C)(C)C)CC4)CO5)c(Oc4cnc5[nH]ccc5c4)c3)CC2)=C(c2ccc(Cl)cc2)C1` [Example 2-229, tert-butyl (S)-4-(7-(N-(2-((1H-pyrrolo[2,3-b]pyridin-5-yl)oxy)-4-(4-((4′-chloro-5,5-dimethyl-3,4,5,6-tetrahydro-[1,1′-biphenyl]-2-yl)meth-yl)piperazin-1-yl)benzoyl)sulfamoyl)-5-nitro-3,4-dihydro-2H-benzo[b][1,4]oxazin-3-yl)piperidine-1-carboxylate], the IC50 came to 1 nM in assay [1] and 38 nM in assay [2].

In the case of `COC(=O)N1CCC([C@H]2COc3cc(S(=O)(=O)NC(=O)c4ccc(N5CCN(CC6=C(c7ccc(Cl)cc7)CC(C)(C)CC6)CC5)cc4Oc4cnc5[nH]ccc5c4)cc([N+](=O)[O-])c3N2)CC1` [Example 2-230, methyl (S)-4-(7-(N-(2-((1H-pyrrolo[2,3-b]pyridin-5-yl)oxy)-4-(4-((4′-chloro-5,5-dimethyl-3,4,5,6-tetrahydro-[1,1′-biphenyl]-2-yl)methyl)piperazin-1-yl)benzoyl)sulfamoyl)-5-nitro-3,4-dihydro-2H-benzo[b][1,4]oxazin-3-yl) piperidine-1-carboxylate], the IC50 in assay [1] was determined as 2 nM; in assay [2] it was 1 nM.

For `CC(=O)N1CCC([C@H]2COc3cc(S(=O)(=O)NC(=O)c4ccc(N5CCN(CC6=C(c7ccc(Cl)cc7)CC(C)(C)CC6)CC5)cc4Oc4cnc5[nH]ccc5c4)cc([N+](=O)[O-])c3N2)CC1` [Example 2-231, (S)-2-((1H-pyrrolo[2,3-b]pyridin-5-yl)oxy)-N-((3-(1-acetylpiperidin-4-yl)-5-nitro-3,4-dihydro-2H-benzo[b][1,4]oxazin-7-yl)sulfonyl)-4-(4-((4′-chloro-5,5-dimethyl-3,4,5,6-tetrahydro-[1,1′-biphenyl]-2-yl)methyl)pi-perazin-1-yl)benzamide], the 50% inhibitory concentration (IC50) was determined as 5 nM in assay [1] and 1 nM in assay [2].
